Measurements as given in PubChem BioAssay (NCI).
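96-well plates; 48 h exposure; 5 concentrations. Endpoints by linear interpolation between flanking doses. Not reached: highest tested concentration assigned. The concentration for 50% growth inhibition is given as GI50. TGI is the concentration that stops growth completely.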

Assays:
Assay in all cases: DTP human tumour cell line panel, 48 h
[1] = tested on: SK-MEL-2 melanoma
[2] = tested on: OVCAR-5 ovarian
[3] = tested on: EKVX NSCLC
[4] = tested on: UO-31 renal
[5] = tested on: K-562 leukemia
[6] = tested on: LXFL 529 NSCLC
[7] = tested on: DMS 114 small cell lung
[8] = tested on: NCI-H226 lung
[9] = tested on: SNB-78 CNS
[10] = tested on: HS 578T breast

Row | Structure (SMILES) | TGI [1] [µM] | TGI [2] [µM] | TGI [3] [µM] | TGI [4] [µM] | TGI [5] [µM] | TGI [6] [µM] | TGI [7] [µM] | TGI [8] [µM] | TGI [9] [µM] | TGI [10] [µM] | GI50 [1] [µM] | GI50 [2] [µM] | GI50 [3] [µM] | GI50 [4] [µM] | GI50 [5] [µM] | GI50 [6] [µM] | GI50 [7] [µM] | GI50 [8] [µM] | GI50 [9] [µM] | GI50 [10] [µM]
1 | CC(=O)OC1CCn2nnc(COC(=O)NC(C)C)c21 (stereo unspecified) | > 100 | > 100 | > 100 | > 100 | > 100 | > 100 | > 100 | > 100 | > 100 |  |  |  |  |  |  |  |  |  |  | 
2 | Cc1ccc(NC(=O)/C(CC(=O)c2c[n+](=O)c3ccccc3n2O)=N\NC(=O)C[n+]2ccccc2)cc1 | > 100 | > 100 | > 100 | > 100 | > 100 | > 100 | > 100 | > 100 | > 100 |  |  |  |  |  |  |  |  |  |  | 
3 | CC(c1ccc(Br)cc1)C(C(=O)O)C(=O)O (stereo unspecified) | > 100 | > 100 | > 100 | > 100 | > 100 | > 100 | > 100 | > 100 | > 100 |  |  |  |  |  |  |  |  |  |  | 
4 | CC(=O)N1CC2Nc3ccccc3C2CC1CO (stereo unspecified) | > 100 | > 100 | > 100 | > 100 | > 100 | > 100 | > 100 | > 100 | > 100 |  |  |  |  |  |  |  |  |  |  | 
5 | O=C(CCC(=O)Nc1ccc(Cl)cc1)CC(=O)c1ccc(F)cc1 | > 100 | > 100 |  | > 100 | > 100 | > 100 |  | > 100 | > 100 |  |  |  |  |  |  |  |  |  |  | 
6 | O=C1CCCC/C1=C/C=C/c1ccccc1 | > 100 | > 100 |  | > 100 | > 100 | > 100 |  | > 100 |  |  |  |  |  |  |  |  |  |  |  | 
7 | O=c1[nH]c(Br)nc2c(Br)c[nH]c12 | > 100 | > 100 | > 100 | > 100 | > 100 | > 100 | > 100 | > 100 | > 100 |  |  |  |  |  |  |  |  |  |  | 
8 | O=c1ccccc2cccc(O)c12 |  |  | > 100 |  | > 100 | > 100 | > 100 |  | > 100 |  |  |  |  |  |  |  |  |  |  | 
9 | COc1ccc2c3c1C(=O)CCC3CO2 (stereo unspecified) | > 100 | > 100 | > 100 | > 100 | > 100 | > 100 | > 100 |  | > 100 |  |  |  |  |  |  |  |  |  |  | 
10 | O=C1C=C(Nc2ccccc2C(=O)CC(=O)C(=O)Nc2cccc(C(F)(F)F)c2)c2ccccc2C1=O | 44.5 | > 100 | 98.7 | > 80.1 | > 94.9 | 71.5 | 35.1 | > 100 | > 100 | 66.2 |  |  |  |  |  |  |  |  |  | 
11 | CC1=CC(C)(C)N=C2SC(c3ccc(Cl)cc3)=NN12 | > 100 | 53.7 | > 100 | 50.4 | > 100 | > 100 | > 100 | 55.4 | > 100 |  |  |  |  |  |  |  |  |  |  | 
12 | CN(C)CCn1c2ccccc2c2nc3cc4ccccc4cc3nc21 | 24.8 |  | 31.8 | 18.1 | 10.9 | 17.9 | 20.7 | 34.6 |  |  |  |  |  |  |  |  |  |  |  | 
13 | CCC[CH2][Sn]([CH2]CCC)([O]C(=O)c1cccc(F)c1)[O]C(=O)c1cccc(F)c1 | 2.1 | 4.24 | 2.96 | 2.47 | 1.81 | 0.664 | 1.63 | 2.4 | 2.27 |  | 0.851 | 2.67 | 1.3 | 1.23 | 0.298 | 0.228 | 0.376 | 1.16 | 0.702 | 
14 | O=C(O)/C(=C/c1ccccc1[N+](=O)[O-])c1ccccc1 | > 100 | > 100 | > 100 | > 100 | > 100 | > 100 | > 100 | > 100 | > 100 |  |  |  |  |  |  |  |  |  |  | 
15 | C=C1CC(CCCl)(c2ccccc2)OC1=O (stereo unspecified) | > 100 | > 100 | > 63.1 | > 100 | > 96.7 | 45.4 | > 63.2 | > 100 | > 81.8 |  |  |  |  |  |  |  |  |  |  | 
16 | CCCNCc1nc2ccc(Br)cc2c(=O)n1CCC | 25.2 |  | 33.3 | 29.8 | > 100 | 25.1 | 22.9 | 26 | 40.6 |  |  |  |  |  |  |  |  |  |  | 
17 | N=C(N)SCCc1cn2ccccc2n1 | > 100 | > 100 | > 100 | > 100 | > 100 |  | > 100 | > 100 | > 100 |  |  |  |  |  |  |  |  |  |  | 
18 | Cc1ccccc1C(=O)Oc1ccc(Oc2ccccc2)cc1 | > 100 | > 100 | > 100 | > 100 | > 100 | > 100 | > 100 | > 100 | > 100 |  |  |  |  |  |  |  |  |  |  | 
19 | Nc1ccc(Nc2nc(F)nc(-c3c4ccccc4c4n3CCS4)n2)cc1 | 29.3 | 32.8 | 48.2 | 22.2 |  | 31.1 | 37.7 | 25.9 | > 100 |  |  |  |  |  |  |  |  |  |  | 
20 | N=C(c1ccccc1)N(O)C1CCCCC1 | > 100 | > 100 | > 100 | > 100 |  | > 100 | > 100 | > 100 | > 100 |  |  |  |  |  |  |  |  |  |  | 

Row | Structure (SMILES) | TGI [1] [µM] | TGI [2] [µM] | TGI [3] [µM] | TGI [4] [µM] | TGI [5] [µM] | TGI [6] [µM] | TGI [7] [µM] | TGI [8] [µM] | TGI [9] [µM] | TGI [10] [µM] | GI50 [1] [µM] | GI50 [2] [µM] | GI50 [3] [µM] | GI50 [4] [µM] | GI50 [5] [µM] | GI50 [6] [µM] | GI50 [7] [µM] | GI50 [8] [µM] | GI50 [9] [µM] | GI50 [10] [µM]
21 | O=C(Nc1c(-c2nc3ccccc3[nH]2)sc(=S)n1-c1ccccc1)c1ccccc1 | > 100 | > 100 | > 100 | > 100 | > 100 | > 100 | > 100 | 58.1 | > 100 |  |  |  |  |  |  |  |  |  |  | 
22 | O=C(OCCOCBr)c1ccccc1 | > 100 | > 100 | > 100 | > 100 | > 100 | > 100 | > 100 | > 100 | > 100 |  |  |  |  |  |  |  |  |  |  | 
23 | Cn1c(CCC#N)nc2ccc(Br)cc2c1=O | > 100 | > 100 | > 100 | > 100 | > 100 | > 100 | > 100 | > 100 |  |  |  |  |  |  |  |  |  |  |  | 
24 | Cn1c(COC(=O)N2CCCCC2)nc2c(N3CCOCC3)nc(-c3ccccc3)nc21 | 3.25 | 2.97 | 2.65 | 1.45 | 6.7 |  |  | 3.62 |  | 2.91 | 1.64 | 1.42 | 1.22 | 0.26 | 0.364 |  |  | 1.59 |  | 0.698
25 | COc1cc2c(c(OC)c1OC)-c1[nH]ncc1CC2 | > 100 | > 100 | > 100 | > 100 | > 100 | > 100 | > 100 | > 100 | > 100 |  |  |  |  |  |  |  |  |  |  | 
26 | CCC[C@H](N[C@@H]1CCc2cc(F)cc(F)c2C1)C(=O)Nc1cn(C(C)(C)CNCC(C)(C)C)cn1 | 35.4 | > 77.7 | > 100 | 22.1 | > 89.2 |  |  | 52.9 |  | 64.4 | 16.1 | 21.1 | 21 | 6.33 | 8.33 |  |  | 16.5 |  | 15.3
27 | C#C[C@]1(O)CC[C@H]2[C@@H]3CC=C4c5sc(N=C(N)N)nc5CC[C@]4(C)[C@H]3CC[C@@]21C | 2.36 | 2.65 | 2.85 | 0.931 | 1.35 |  |  | 3.97 |  | 1.11 | 0.787 | 1.33 | 1.25 | 0.307 | 0.354 |  |  | 1.82 |  | 0.243
28 | CCOC(=O)/N=C(\N)SCc1ccccc1 | > 100 | > 100 | > 100 | > 100 | > 100 | > 100 | > 100 | > 100 | > 100 |  |  |  |  |  |  |  |  |  |  | 
29 | CC(C)C(=O)N[C@@H](C)C(=O)N(Cc1ccc2ccccc2c1)N=O | > 100 | > 100 | > 100 | > 100 | > 100 | > 100 | > 100 |  | > 100 |  |  |  |  |  |  |  |  |  |  | 
30 | O=c1/c(=C/c2ccc(Cl)cc2Cl)sc2nc3ccccc3n12 | > 100 | > 100 | > 100 | > 100 | > 100 | > 100 | > 100 | > 100 | > 100 |  |  |  |  |  |  |  |  |  |  | 
31 | C(=C1c2ccccc2-c2ccccc21)c1ccccn1 | 43 | > 100 | 38.3 | 38.6 | > 100 |  |  | > 100 |  | 28.5 | 12.7 | 21.8 | 5.85 | 8.64 | 3.93 |  |  | 14.2 |  | 6.21
32 | O=S1(=O)CCN(Cc2ccccn2)CC1 | > 100 | > 100 | > 100 | > 100 | > 100 |  |  | > 100 |  | > 100 |  |  |  |  |  |  |  |  |  | 
33 | ClCCN(CCCl)c1ccc(-n2cnc3c(Cl)ncnc32)cc1 | 27.6 | 35.9 | 3.66 | 3.34 | 9.92 |  |  | 27.7 |  | 9.79 | 14 | 17.9 | 1.65 | 1.7 | 3.24 |  |  | 13.3 |  | 2.95
34 | C(=C\c1csnn1)/c1cccnc1 | > 100 | > 100 | > 100 | > 100 | > 100 | > 100 | > 100 | > 100 | > 100 |  |  |  |  |  |  |  |  |  |  | 
35 | CC(C)(C)c1ccc([I+]c2ccc(C(C)(C)C)cc2)cc1 | 3.86 | 12.9 | 5.24 | 14.8 | 2.46 |  |  | 5.32 |  | 7.69 | 1.51 | 3.24 | 1.42 | 3.62 | 0.55 |  |  | 1.29 |  | 1.98
36 | O=C1Nc2ccccc2C1Cc1ccccc1 (stereo unspecified) | > 100 | > 100 | > 100 | > 100 | > 100 |  |  | > 100 |  | > 100 |  |  |  |  |  |  |  |  |  | 
37 | COC(=O)c1ccccc1NC(=O)/C(=N\NC(C)(C)C)C(C#N)c1nc(-c2ccc([N+](=O)[O-])cc2)cs1 (stereo unspecified) | > 100 | > 100 | > 100 | > 100 | > 100 |  |  | > 100 |  | > 100 |  |  |  |  |  |  |  |  |  | 
38 | CC(ONC(=O)c1cc(C(F)(F)F)cc(C(F)(F)F)c1)C(=O)Nc1ccc(Cl)cc1 (stereo unspecified) | 15.2 | 25.1 | > 63 | 21.5 | > 45.5 |  |  | > 64.4 |  | 42.4 | 3.65 | 5.53 | 4.46 | 4.85 | 5.75 |  |  | 7.31 |  | 5.43
39 | O=c1c2ccc3cccc4c(=O)cc(c5ccccc15)-c2c34 | > 100 | > 100 | > 100 | > 100 | > 100 | > 100 | > 100 | > 100 |  |  |  |  |  |  |  |  |  |  |  | 
40 | COc1cc(-c2[nH]ccc2Cl)oc1C1=C2N=C3C=C2C(C(C)C)C1CCCCCCCC3 (stereo unspecified) | 1.39 | 2.05 | 3.51 | 2.55 | 1.85 | 1.84 | 1.87 | 3.51 | 15.5 | 1.41 |  |  |  |  |  |  |  |  |  | 
